According to ChEMBL document CHEMBL1155651, “New prenylated anthraquinones and xanthones from Vismia guineensis” (2000):

Columns and labels:
Format in all cases: functional, PBL
[1] = Antimitotic activity in human peripheral blood lymphocytes assessed as mitotic index at 1 uM
[2] = Antimitotic activity in human peripheral blood lymphocytes assessed as mitotic index at 25 uM
[3] = Antimitotic activity in human peripheral blood lymphocytes assessed as mitotic index at 0.5 uM

SMILES	Activity [1] [%]	Activity [2] [%]	Activity [3] [%]
COC(C)(C)CCC/C(C)=C/COc1cc(O)c2c(c1)Cc1cc(C)cc(O)c1C2=O	48.7	49.9	47.4
CN[C@H]1CCc2cc(OC)c(OC)c(OC)c2-c2ccc(OC)c(=O)cc21 [DEMECOLCINE]	70.1	–	–
C[C@]12CC[C@@H]3c4ccc(OC(=O)N(CCCl)CCCl)cc4CC[C@H]3[C@@H]1CC[C@@H]2O [ESTRAMUSTINE]	78.7	–	–
